Source: paper PMC11143095, “Chemically engineered essential oils prepared through thiocyanation under solvent-free conditions: chemical and bioactivity alteration” (Natural Products and Bioprospecting, 2024)

Biological target: T1, AChE from Electrophorus electricus (Electrophorus electricus, UniProt O42275)
T1 construct: purchased Sigma-Aldrich (St. Louis, MO, USA)
Test: biochemical
Details: for IC50: Ellman's reagent, microplate, 37 °C, pH 7.5, read-out: half maximal inhibitory concentration (IC50) against AChE
Procedure: Microplate assays utilizing Ellman’s reagent were performed to quantitatively assess the inhibitory activity of the isolated compounds against AChE [67].
Ammonium thiocyanate, sodium thiosulfate pentahydrate, anhydrous sodium sulfate and iodine were purchased from Cicarelli Laboratorios (San Lorenzo, Santa Fe). AChE from Electrophorus electricus EC 3.1.1.7, Fast blue salt B (FBB), α-naphthol, α-naphthyl acetate (α-NAc), and CDCl3, were purchased from Sigma-Aldrich (St. Louis, MO, USA). Acetonitrile (LCMS grade) was acquired from Carlo Erba Reagents (Val de Reuil, France) and formic acid from Merck. Aluminium TLC sheets coated with Silica gel 60 F were purchased from Merck (Darmstadt, Germany). Agar was purchased from Britania (Bs. As., Argentina).
Inhibition percentage determinations were carried out using the method applied by Osella et al.. Wells were filled in triplicate with AChE solution (in 0.1 M phosphate buffer, pH 7.5, and 13.7 µU/mL end concentration per well), Ellman’s reagent (DTNB, 5,5dithio-bis-(2-nitrobenzoic acid)), the same buffer solution (0.31 mM end concentration per well) and 10 µL of test compound in DMSO solution (0.05 µM end concentration per well). […] The enzymatic reaction was initiated by addition of acetylthiocholine iodide (0.46 mM end concentration per well). The final volume per well was 270 µL. The plate was shaken for 2 s and the increase in absorbance at 405 nm was monitored at 37 °C for 15 min. For IC50 determination, ten serial dilutions of the compounds were prepared in DMSO, following equally spaced points on a neperian logarithm scale, starting at 2.16 mM and finishing at 0.00023 mM (end concentration per well: 80.00 to 0.00839 µM). IC50 calculated using Prism V5.01 (GraphPad Software Inc., La Jolla, CA, USA) applying a non linear regression curve fit for a log[inhibitor] vs. normalized answer model with variable slope.

T1 sequence (O42275 24-633): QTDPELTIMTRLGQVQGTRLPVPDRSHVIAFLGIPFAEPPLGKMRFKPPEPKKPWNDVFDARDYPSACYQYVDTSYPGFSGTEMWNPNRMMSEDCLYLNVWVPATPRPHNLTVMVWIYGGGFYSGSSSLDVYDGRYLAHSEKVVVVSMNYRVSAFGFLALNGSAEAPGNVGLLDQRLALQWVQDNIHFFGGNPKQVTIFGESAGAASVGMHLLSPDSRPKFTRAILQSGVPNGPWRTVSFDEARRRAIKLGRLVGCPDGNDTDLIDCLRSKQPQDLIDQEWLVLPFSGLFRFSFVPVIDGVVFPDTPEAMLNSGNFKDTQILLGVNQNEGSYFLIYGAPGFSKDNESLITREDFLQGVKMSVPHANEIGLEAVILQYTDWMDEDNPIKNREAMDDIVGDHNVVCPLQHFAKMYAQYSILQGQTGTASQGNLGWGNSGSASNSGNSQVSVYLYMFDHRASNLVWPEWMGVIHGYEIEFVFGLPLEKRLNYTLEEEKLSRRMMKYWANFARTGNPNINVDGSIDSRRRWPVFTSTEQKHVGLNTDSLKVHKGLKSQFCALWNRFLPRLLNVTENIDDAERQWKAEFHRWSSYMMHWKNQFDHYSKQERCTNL

SMILES | activity against AChE (in words) | IC50
Cc1ccc(C(C)C)cc1O [carvacrol, reference compound] | inactive | 
Cc1cc(SC#N)c(C(C)C)cc1O [compound 1, 5-isopropyl-2-methyl-4-thiocyanatophenol] |  | 4086 ± 35 nM
Cc1cc(Sc2cc(C)c(O)cc2C(C)C)c(C(C)C)cc1O [compound 2, 4,4′-thiobis(5-isopropyl-2-methylphenol)] |  | 158 ± 59 nM
Cc1cc(Sc2nsc(-c3cc(C)c(O)cc3C(C)C)n2)c(C(C)C)cc1O [compound 3, 4-((5-(4-hydroxy-2-isopropyl-5-methylphenyl)-1,2,4-thiadiazol-3-yl)thio)-5-isopropyl-2-methylphenol] |  | 56 ± 25 nM
Cc1cc(Sc2nsc(Sc3cc(C)c(O)cc3C(C)C)n2)c(C(C)C)cc1O [compound 4] |  | 34 ± 16 nM
